The text below walks through data of patent US12233100B1, “Composition for improving respiratory health of companion animals” (priority 2024, dated 2025).

This test relates to IgE. The test is described as follows: IgE content in the serum (ELISA). The format is in vivo. The note with it: positive control group, 30 mg/kg. As to the method: In order to measure IgE content in the serum, enzyme-linked immunosorbent assay (ELISA) (an antigen-antibody amount measurement method) kit was used. 100 μl of each of the standard solution and the serum entered each well, was reacted at 4° C. for 10 hours using a rotary agitator and then washed 4 times with a washing solution.
After completely removing the washing solution, 100 μl of a detection antibody entered each well, followed by rotational-agitation at room temperature for 1 hour and then washing the same 4 times with the washing solution. After washing, 100 μl of HRP-Streptavidin (enzyme activity and adsorption protein) solution entered each well, followed by rotational-agitation at room temperature for 45 minutes and then washing the same with 1× washing solution. Further, 100 μl of TMB One-step detection reagent entered each well, followed by rotational-agitation in a dark room for 30 minutes, and then, treatment with 50 μl of a reaction stopping reagent. Then, the absorbance was measured at […], compared to IgE standard curve to convert a content (pg/ml).
In general terms: In an ELISA, binding on a coated surface is turned into a signal by an enzyme label.

On to `CC(C)(O)c1ccccc1CC[C@@H](SCC1(CC(=O)O)CC1)c1cccc(/C=C/c2ccc3ccc(Cl)cc3n2)c1` [monteluksat, montelukast], for which the “IgE content in the serum” value is 347 pg/mL.
